# Article PMC8249445, “Complex effects of macrolide venturicidins on bacterial F-ATPases likely contribute to their action as antibiotic adjuvants” (Scientific Reports, 2021)
# Target: T1, FOF1-ATPase of WT E. coli membranes (Escherichia coli, UniProt P68699)
# T1 construct: To express haploid levels of EcFOF1 containing WT-ε or ε88-stop; expressed in transfected cells; host or cells: E. coli strain XH1 (chromosomal atpC deletion) carrying pMBε1; inverted membrane vesicles
# Assay: biochemical
# Format: biochemical
# Conditions: for ATPase rate, Early / ATPase rate, Late / Late/early ratio: 10 µM ventA final; for Ki: VentA at half-max. inhibition (Ki), early inhibition
# Protocol: ATP hydrolysis is enzyme-coupled to conversion of NADH to NAD^+, which results in decreased light absorbance; thus, a larger rate of ATP hydrolysis is indicated by a steeper downward slope. The system also rapidly regenerates ATP, minimizing the concentration of product ADP during the assay. Unless noted, assays were preincubated to establish a steady state hydrolysis rate (see “Methods”) before the ‘zero’ point of measurements.
# Plasmid pXH302S, which encodes the WT atpC gene and expresses near haploid levels of the ε subunit, was subjected to fusion PCR mutagenesis to construct plasmid pMBε1, with an N-terminal affinity tag ([…]) added prior to the initial Met residue. To express the ε88-stop subunit, an AfeI-ScaI restriction fragment of WT pMBε1 was replaced by the analogous fragment from pH6ε88-stop[46]. To express haploid levels of EcFOF1 containing WT-ε or ε88-stop, the appropriate version of pMBε1 was transformed into E. coli strain XH1, which has a chromosomal deletion of the atpC gene for ε[54]. For these transformed strains, cultures were grown and inverted membrane vesicles (IMV) were prepared according to [55]. WT ε, with the same N-terminal His6-tag, was over-expressed from pH6ε and purified as described.
# ATP hydrolysis by membrane vesicles was assayed spectrophotometrically[57] at 30 °C using an open-chamber, diode array spectrophotometer (Hewlett Packard 8453 UV–Vis) as described in[29]. The assay medium (1 ml per assay) contained 20 mM Mops/Tris, pH 8.0, 0.2 mM EDTA, 10 mM CH3COOK, 1 mM ATP, 3.2 mM Mg(CH3COO)2, 1 mM phosphoenolpyruvate, at least 0.3 mM NADH, 0.1 mg/ml pyruvate kinase, 0.1 mg/ml lactate dehydrogenase, 5 mM KCN, and 5 μM carbonyl cyanide 4-(trifluoromethoxy)-phenylhydrazone. […] To avoid interference of this increase with the changes of ATPase activity induced by venturicidins, unless indicated otherwise, measurement of ATPase activities were started 60 min after addition of membranes to the complete assay medium. […] To keep absorbance between 1.5 and 2 units after the 60-min preincubation, up to 0.2 mM additional NADH was added to the assay medium. In figures displaying activity traces, some traces are shifted vertically for visual clarity.
# [1] = preincubation +MgATP, no ventA, selenite
# [2] = preincubation No MgATP, +ventA (trace 2), 40 mM selenite
# [3] = WT + 6 μM azide (Fig. 2C), best fit of early rates
# [4] = WT + 38.5 mM selenite (Fig. 2B), best fit of early rates
smiles,measurement,setting,value
"CCC(=O)C(C)C(O)C(C)CC(C)C1OC(=O)CC2(O)CC=C(C)C(O2)C(C)=CCCCC(OC2CC(OC(N)=O)C(O)C(C)O2)C=CC(C)CC1C (stereo not drawn) [ventA, venturicidin A]",Late rate (last 3 min of assay),"9.5 μM ventA, 38.5 mM selenite (Fig. 5A #3)",2.7 U/mg
same,Rate during 100 s immediately before adding ε,"9.5 μM ventA, 38.5 mM selenite (Fig. 5A trace #4)",2.5 U/mg
same,"ATPase rate, Early",[1],1.27 U/mg
same,"ATPase rate, Late",[1],2.97 U/mg
same,Late/early ratio,[1],2.34
same,"ATPase rate, Early",[2],1.22 U/mg
same,"ATPase rate, Late",[2],2.93 U/mg
same,Late/early ratio,[2],2.40
same,Decrease of initial ATPase rate,"30 min preincubation with 10 μM ventA without ATP, selenite present",about 40%
same,Ki,WT + 6 μM azide (Fig. 2C),1700 nM
same,Ki,WT + 38.5 mM selenite (Fig. 2B),230 nM
same,Ki,"WT, alone (Fig. 2A)",700 nM
same,ATPase at saturating ventA (y0),[3],36% (± 4)
same,VentA-sensitive ATPase (y1),[3],106% (± 5)
same,ATPase at saturating ventA (y0),[4],53% (± 1)
same,VentA-sensitive ATPase (y1),[4],46% (± 2)
same,"Sensitivity to immediate inhibition, selenite vs azide","WT EcFOF1, MgADP-inhibited state minimized by selenite vs increased by azide",~ sevenfold
same,Increase of early Ki value by azide,"WT, 6 µM azide vs none",2.4 fold
same,ATPase at saturating ventA (y0),"WT, alone (Fig. 2A), best fit of early rates",47% (± 2)
same,VentA-sensitive ATPase (y1),"WT, alone (Fig. 2A), best fit of early rates (within 1 min after adding ventA)",80% (± 5)
same,Reduction of Ki for early inhibition by selenite,"WT, with vs without selenite",threefold
same,"Immediate increase in ATPase rate, first minute post-addition","lower ventA concentration (Fig. 1, trace 2), no effector",11%
same,inhibition at 10 µM,read-out: Additional time-dependent inhibition,~25%
same,ATPase activity during the last 3 min of assays,"ventA added after 0.1 mM DCCD (trace 3, 15 μM ventA), no selenite",0.49 (± 0.06) U/mg
same,ATPase activity during the last 3 min of assays,"ventA added before 0.1 mM DCCD (trace 2, 10 μM ventA), no selenite",0.53 (± 0.05) U/mg
same,ATPase activity during the last 3 min of assays,"ventA after 0.1 mM DCCD (trace 3, 15 μM ventA), 38.5 mM selenite",2.84 U/mg
same,ATPase activity during the last 3 min of assays,"ventA before 0.1 mM DCCD (trace 2, 10 μM ventA), 38.5 mM selenite",2.93 U/mg
